Molecular target: T1, native ornithine/citrulline carrier (ORC, SLC25A15) (Rattus norvegicus, UniProt A0A0G2K309)
T1 construct: from tissue; host or cells: rat liver mitochondria
T1 sequence (A0A0G2K309 1-301): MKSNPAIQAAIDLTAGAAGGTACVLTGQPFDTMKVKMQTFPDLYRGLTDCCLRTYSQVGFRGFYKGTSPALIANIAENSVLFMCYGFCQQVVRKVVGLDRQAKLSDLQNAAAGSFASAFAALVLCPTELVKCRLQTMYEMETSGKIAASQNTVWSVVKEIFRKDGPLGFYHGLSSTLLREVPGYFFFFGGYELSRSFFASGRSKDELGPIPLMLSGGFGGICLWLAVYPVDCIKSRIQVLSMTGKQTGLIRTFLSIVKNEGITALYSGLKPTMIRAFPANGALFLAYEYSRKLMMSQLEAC
Assay: [3H]ornithine transport in proteoliposomes reconstituted with native ORC
Format: biochemical
Conditions: read-out: IC50 for itaconate inhibition
Description: As previously described, recombinant CAC (WT and mutants) and ORC1 proteins were used for proteoliposome formation. For experiments with native CAC, ORC1, or ANT proteins, rat liver mitochondria, or HeLa cell mitochondria, the latter for the CAC alone, were first purified using the standard procedure of cell disruption and differential centrifugation. Then proteins were extracted using 3% Triton X-100 and reconstituted as described for the recombinant proteins. The concentration of intraliposomal carnitine and ornithine was 15 mM and 30 mM, respectively, in all samples.
To test the transport activity of the CAC, 550 μL of proteoliposomes was passed through a Sephadex G-75 column to remove the external substrate. […] Transport rates were measured in 10 min, i.e., within the initial linear range of the time course, at 25 °C. After terminating the transport reaction, the external substrate was removed by chromatography on the Sephadex G-75 column, and the intraliposomal radioactivity was measured. […]
Figure 3 Identification of residue responsible for itaconate inhibition. […] Transport activity of the WT (○), C136A (●), C155A (Δ), C23V/C58V/C89S/C155V/C283S (▲), and C23V/C58V/C89S/C136V/C155V/C283S (□) was measured by adding 0.1 mM [^3H]carnitine after treatment by itaconate at the indicated concentrations. […]

## C=C(CC(=O)O)C(=O)O [itaconate]
  IC50: 52 ± 5.5 mM
